Assay results: patent US9499550B2 (BRISTOL-MYERS SQUIBB COMPANY, priority 2012, dated 2016)

Assays:
[1] = system: HCV genotype 1a (H77 strain) replicon in HUH-7 cells; assay: HCV replicon luciferase reporter assay, genotype 1a; type: cell-based; settings: Hepatitis C virus, Huh-7, 72 h, HCV genotype 1a replicon luciferase, 3 days incubation, read-out: LE_1a (EC50, range)
In short: (§1)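 Replicon inhibition for both genotypes was measured as Renilla luciferase signal (EnduRen, 7.5 μM final, 2 h) after 3-day, 37° C exposure of replicon-bearing HUH-7 cells in 4% FCS DMEM, 0.5% DMSO. The 1b construct carries S1179I; the 1a H77 construct carries P1496L and S2204I. Twenty-point, 3-fold dilutions were fitted four-parametrically for EC50, and CC50 was taken from multiplexed Cell Titer-Blue.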

[2] = system: HCV genotype 1b (Con1) replicon in HUH-7 cells; assay: HCV replicon luciferase reporter assay, genotype 1b; type: cell-based; settings: Hepatitis C virus, Huh-7, 72 h, HCV genotype 1b replicon luciferase, 3 days incubation, read-out: LE_1b (EC50, range)
In short: as §1

Row | Structure (SMILES) | EC50 [1] [nM] | EC50 [2] [nM]
1 | COc1ccc2c(O[C@@H]3C[C@H]4C(=O)N[C@]5(C(=O)NS(=O)(=O)C6(C)CC6)C[C@H]5/C=C\CC[C@@H](C)C[C@@H](C)[C@H](NC(=O)OC(C)(C)C)C(=O)N4C3)nc(-c3ccc4c(c3)OCCO4)cc2c1 [Compound 5233, tert-butyl ((2R,6S,7R,9R,13aS,14aR,16aS,Z)-2-((3-(2,3-dihydrobenzo[b][1,4]dioxin-6-yl)-6-methoxyisoquinolin-1-yl)oxy)-7,9-dimethyl-14a-(((1-methylcyclopropyl)sulfonyl)carbamoyl)-5,16-dioxo-1,2,3,5,6,7,8,9,10,11,13a,14,14a,15,16,16a-hexadecahydrocyclopropa[e]pyrrolo[1,2-a][1,4]diazacyclopentadecin-6-yl)carbamate] | < 5.46 | < 5.46
2 | COc1ccc2c(O[C@@H]3C[C@H]4C(=O)N[C@]5(C(=O)NS(=O)(=O)C6(C)CC6)C[C@H]5/C=C\CC[C@@H](C)C[C@@H](C)[C@H](NC(=O)OC(C)(C)C(F)(F)F)C(=O)N4C3)nc(-c3ccc4c(c3)OCCO4)cc2c1 [Compound 5235, 1,1,1-trifluoro-2-methylpropan-2-yl((2R,6S,7R,9R,13aS,14aR,16aS,Z)-2-((3-(2,3-dihydrobenzo[b][1,4]dioxin-6-yl)-6-methoxyisoquinolin-1-yl)oxy)-7,9-dimethyl-14a-(((1-methylcyclopropyl)sulfonyl)carbamoyl)-5,16-dioxo-1,2,3,5,6,7,8,9,10,11,13a,14,14a,15,16,16a-hexadecahydrocyclopropa[e]pyrrolo[1,2-a][1,4]diazacyclopentadecin-6-yl)carbamate] | < 5.46 | < 5.46
3 | COc1ccc2c(O[C@@H]3C[C@H]4C(=O)N[C@]5(C(=O)NS(=O)(=O)C6(C)CC6)C[C@H]5/C=C\CC[C@H](C)C[C@@H](C)[C@H](NC(=O)OC(C)(C)C(C)(F)F)C(=O)N4C3)nc(-c3ccc4c(c3)OCCO4)cc2c1 [Compound 5236, 3,3-difluoro-2-methylbutan-2-yl((2R,6S,7R,9S,13aS,14aR,16aS,Z)-2-((3-(2,3-dihydrobenzo[b][1,4]dioxin-6-yl)-6-methoxyisoquinolin-1-yl)oxy)-7,9-dimethyl-14a-(((1-methylcyclopropyl)sulfonyl)carbamoyl)-5,16-dioxo-1,2,3,5,6,7,8,9,10,11,13a,14,14a,15,16,16a-hexadecahydrocyclopropa[e]pyrrolo[1,2-a][1,4]diazacyclopentadecin-6-yl)carbamate] | < 5.46 | < 5.46
4 | COc1ccc2c(O[C@@H]3C[C@H]4C(=O)N[C@]5(C(=O)NS(=O)(=O)C6(C)CC6)C[C@H]5/C=C\CC[C@@H](C)C[C@@H](C)[C@H](NC(=O)OC(C)(C)C(C)(F)F)C(=O)N4C3)nc(-c3ccc4c(c3)OCCO4)cc2c1 [Compound 5237, 3,3-difluoro-2-methylbutan-2-yl((2R,6S,7R,9R,13aS,14aR,16aS,Z)-2-((3-(2,3-dihydrobenzo[b][1,4]dioxin-6-yl)-6-methoxyisoquinolin-1-yl)oxy)-7,9-dimethyl-14a-(((1-methylcyclopropyl)sulfonyl)carbamoyl)-5,16-dioxo-1,2,3,5,6,7,8,9,10,11,13a,14,14a,15,16,16a-hexadecahydrocyclopropa[e]pyrrolo[1,2-a][1,4]diazacyclopentadecin-6-yl)carbamate] | < 5.46 | < 5.46
5 | COc1ccc2c(O[C@@H]3C[C@H]4C(=O)N[C@]5(C(=O)NS(=O)(=O)C6CC6)C[C@H]5/C=C\CC[C@@H](C)C[C@@H](C)[C@H](NC(=O)OC(C)(C)C)C(=O)N4C3)nc(-c3ccc4c(c3)OCCO4)cc2c1 [Compound 5239, tert-butyl ((2R,6S,7R,9R,13aS,14aR,16aS,Z)-14a-((cyclopropylsulfonyl)carbamoyl)-2-((3-(2,3-dihydrobenzo[b][1,4]dioxin-6-yl)-6-methoxyisoquinolin-1-yl)oxy)-7,9-dimethyl-5,16-dioxo-1,2,3,5,6,7,8,9,10,11,13a,14,14a,15,16,16a-hexadecahydrocyclopropa[e]pyrrolo[1,2-a][1,4]diazacyclopentadecin-6-yl)carbamate] | < 5.46 | < 5.46
6 | COc1ccc2c(O[C@@H]3C[C@H]4C(=O)N[C@]5(C(=O)NS(=O)(=O)C6CC6)C[C@H]5/C=C\CC[C@@H](C)C[C@@H](C)[C@H](NC(=O)OC(C)(C)C(C)(F)F)C(=O)N4C3)nc(-c3ccc4c(c3)OCCO4)cc2c1 [Compound 5241, 3,3-difluoro-2-methylbutan-2-yl((2R,6S,7R,9R,13aS,14aR,16aS,Z)-14a-((cyclopropylsulfonyl)carbamoyl)-2-((3-(2,3-dihydrobenzo[b][1,4]dioxin-6-yl)-6-methoxyisoquinolin-1-yl)oxy)-7,9-dimethyl-5,16-dioxo-1,2,3,5,6,7,8,9,10,11,13a,14,14a,15,16,16a-hexadecahydrocyclopropa[e]pyrrolo[1,2-a][1,4]diazacyclopentadecin-6-yl)carbamate] | < 5.46 | < 5.46
7 | COc1ccc2c(O[C@@H]3C[C@H]4C(=O)N[C@]5(C(=O)NS(=O)(=O)C6CC6)C[C@H]5/C=C\CC[C@@H](C)C[C@@H](C)[C@H](NC(=O)OC(C)(C)C(F)(F)F)C(=O)N4C3)nc(-c3ccc4c(c3)OCCO4)cc2c1 [Compound 5243, 1,1,1-trifluoro-2-methylpropan-2-yl((2R,6S,7R,9R,13aS,14aR,16aS,Z)-14a-((cyclopropylsulfonyl)carbamoyl)-2-((3-(2,3-dihydrobenzo[b][1,4]dioxin-6-yl)-6-methoxyisoquinolin-1-yl)oxy)-7,9-dimethyl-5,16-dioxo-1,2,3,5,6,7,8,9,10,11,13a,14,14a,15,16,16a-hexadecahydrocyclopropa[e]pyrrolo[1,2-a][1,4]diazacyclopentadecin-6-yl)carbamate] | < 5.46 | < 5.46
8 | C[C@H]1CC/C=C\[C@@H]2C[C@@]2(C(=O)NS(=O)(=O)C2(C)CC2)NC(=O)[C@@H]2C[C@@H](Oc3nccc4c5c(ccc34)OCCO5)CN2C(=O)[C@@H](NC(=O)OC(C)(C)C)[C@H](C)C1 [Compound 5244, tert-butyl ((2R,6S,7R,9S,13aS,14aR,16aS,Z)-2-((2,3-dihydro-[1,4]dioxino[2,3-f]isoquinolin-7-yl)oxy)-7,9-dimethyl-14a-(((1-methylcyclopropyl)sulfonyl)carbamoyl)-5,16-dioxo-1,2,3,5,6,7,8,9,10,11,13a,14,14a,15,16,16a-hexadecahydrocyclopropa[e]pyrrolo[1,2-a][1,4]diazacyclopentadecin-6-yl)carbamate] | 4.82 to 103 | 4.82 to 103
9 | C[C@@H]1CC/C=C\[C@@H]2C[C@@]2(C(=O)NS(=O)(=O)C2(C)CC2)NC(=O)[C@@H]2C[C@@H](Oc3nccc4c5c(ccc34)OCCO5)CN2C(=O)[C@@H](NC(=O)OC(C)(C)C)[C@H](C)C1 [Compound 5245, tert-butyl ((2R,6S,7R,9R,13aS,14aR,16aS,Z)-2-((2,3-dihydro-[1,4]dioxino[2,3-f]isoquinolin-7-yl)oxy)-7,9-dimethyl-14a-(((1-methylcyclopropyl)sulfonyl)carbamoyl)-5,16-dioxo-1,2,3,5,6,7,8,9,10,11,13a,14,14a,15,16,16a-hexadecahydrocyclopropa[e]pyrrolo[1,2-a][1,4]diazacyclopentadecin-6-yl)carbamate] | < 5.46 | < 5.46
10 | C[C@H]1CC/C=C\[C@@H]2C[C@@]2(C(=O)NS(=O)(=O)C2(C)CC2)NC(=O)[C@@H]2C[C@@H](Oc3nccc4c5c(ccc34)OCCO5)CN2C(=O)[C@@H](NC(=O)OC(C)(C)C(F)(F)F)[C@H](C)C1 [Compound 5246, 1,1,1-trifluoro-2-methylpropan-2-yl((2R,6S,7R,9S,13aS,14aR,16aS,Z)-2-((2,3-dihydro-[1,4]dioxino[2,3-f]isoquinolin-7-yl)oxy)-7,9-dimethyl-14a-(((1-methylcyclopropyl)sulfonyl)carbamoyl)-5,16-dioxo-1,2,3,5,6,7,8,9,10,11,13a,14,14a,15,16,16a-hexadecahydrocyclopropa[e]pyrrolo[1,2-a][1,4]diazacyclopentadecin-6-yl)carbamate] | 4.82 to 103 | 4.82 to 103
11 | C[C@@H]1CC/C=C\[C@@H]2C[C@@]2(C(=O)NS(=O)(=O)C2(C)CC2)NC(=O)[C@@H]2C[C@@H](Oc3nccc4c5c(ccc34)OCCO5)CN2C(=O)[C@@H](NC(=O)OC(C)(C)C(F)(F)F)[C@H](C)C1 [Compound 5247, 1,1,1-trifluoro-2-methylpropan-2-yl((2R,6S,7R,9R,13aS,14aR,16aS,Z)-2-((2,3-dihydro-[1,4]dioxino[2,3-f]isoquinolin-7-yl)oxy)-7,9-dimethyl-14a-(((1-methylcyclopropyl)sulfonyl)carbamoyl)-5,16-dioxo-1,2,3,5,6,7,8,9,10,11,13a,14,14a,15,16,16a-hexadecahydrocyclopropa[e]pyrrolo[1,2-a][1,4]diazacyclopentadecin-6-yl)carbamate] | < 5.46 | < 5.46
12 | C[C@H]1CC/C=C\[C@@H]2C[C@@]2(C(=O)NS(=O)(=O)C2(C)CC2)NC(=O)[C@@H]2C[C@@H](Oc3nccc4c5c(ccc34)OCCO5)CN2C(=O)[C@@H](NC(=O)O[C@@H]2C[C@@H]3C[C@@H]3C2)[C@H](C)C1 [Compound 5248, (1R,3r,5 S)-bicyclo[3.1.0]hexan-3-yl((2R,6S,7R,9S,13aS,14aR,16aS,Z)-2-((2,3-dihydro-[1,4]dioxino[2,3-f]isoquinolin-7-yl)oxy)-7,9-dimethyl-14a-(((1-methylcyclopropyl)sulfonyl)carbamoyl)-5,16-dioxo-1,2,3,5,6,7,8,9,10,11,13a,14,14a,15,16,16a-hexadecahydrocyclopropa[e]pyrrolo[1,2-a][1,4]diazacyclopentadecin-6-yl)carbamate] | 4.82 to 103 | < 5.46
